Assay results published in patent US11458141B2, “Aryl hydrocarbon receptor (AhR) agonists for the prevention and treatment of inflammatory disorders” (The Johns Hopkins University, priority 2017, dated 2022).
“Also recorded” adds a separate entry of the source.

Legend:
Assay type in all cases: in vivo, mouse
[1] = tested on: Tlr4 mRNA in the ileum; test: Ileal Tlr4 mRNA and microRNA expression in neonatal mice given I3C; settings: 7-day-old mice, 25 mg/kg oral gavage, after 24 hours
Description: Neonatal mice at the age of 7 days old were given AHR agonist […] (25 mg/kg) via oral gavage, and the ileal expression of Tlr4 mRNA and microRNAs, which have been reported to down-regulate Tlr4 transcription, were quantified after 24 hours. Referring now to FIG. 24, the mRNA expression of Tlr4 was quantified in the ileum of neonatal mice treated with AHR agonist […]. Data are represented as mean±SEM; *p<0.05 between indicated groups; each dot represents an individual mouse. […] Referring now to FIG. 25, the expression of let-71, miR-223, and miR-146b, which are microRNAs known to inhibit Tlr4 mRNA expression, was quantified in the ileum of neonatal mice treated with AHR agonist […]. Data are represented as mean±SEM; *p<0.05 between indicated groups; each dot represents an individual mouse.

[2] = tested on: mice with NEC; test: Maternal I3C administration, Tnf alpha and Il6 mRNA in ileum of offspring with NEC; settings: mums 25 mg/kg oral gavage E7 to P7, NEC groups
Description: The pups whose mums received 25 mg/kg indole-3-carbinol (13C) by oral gavage starting from the embryonic age 7 (E7) of the fetus until the postnatal day 7 (P7) were included in maternal […]-rich group, while the pups whose mums received vehicle were included in maternal […]-free group. Necrotizing enterocolitis (NEC) was induced in 7-day-old mouse pups by gavage feeding and hypoxia exposure for 4 days. The ileum was harvested at the end of experiment and the mRNA expression of target genes was analyzed by qPCR. Referring now to FIG. 8, the mRNA expression of pro-inflammatory cytokine tumor necrosis factor alpha (Tnf alpha) was quantified in the ileum of experimental NEC models. Data are represented as mean±SEM; *p<0.05 between indicated groups; each dot represents an individual mouse. […] Referring now to FIG. 9, the mRNA expression of pro-inflammatory cytokine Interleukin-6 (Il6) was quantified in the ileum of experimental NEC models. Data are represented as mean±SEM; *p<0.05 between indicated groups; each dot represents an individual mouse.

[3] = tested on: TLR4 signaling in the intestinal epithelium; test: LPS-induced TLR4 signaling and Cypla1 in the intestinal mucosa of mice
Description: In seeking to investigate how AHR signaling attenuates NEC severity, whether AHR activation could limit the degree of TLR4 signaling in the gut was investigated. To do so, enteroids were derived from wild-type mice, which are intestinal cultures containing all cell lineages derived from intestinal crypts, as have been described.

How did the “expression of let-7i in the ileum” value [1] turn out when OCc1c[nH]c2ccccc12 [I3C, indole-3-carbinol] was run?
The value was “significantly increased”.

What about the “expression of miR-146b in the ileum” value [1] of the same molecule?
The value was “significantly increased”.

What about the “expression of miR-223 in the ileum” value [1] of the same molecule?
The value was “significantly increased”.

What about the “mRNA expression of Tlr4 in the ileum” value [1] of the same molecule?
The value was “significantly reduced the expression of Tlr4 mRNA”.

And the “Il6 mRNA expression in offspring” value [2]?
The value was “significantly reduced the Il6 expression”.

What about the “Tnf alpha mRNA expression in offspring” value [2] of the same molecule?
Its value is “significantly reduced the Tnf alpha expression”.

What about the “enterocyte apoptosis after TLR4 activation” value ([3]; intestinal mucosa, I3C, LPS) of the same molecule?
The value was “reversed the deleterious effects of TLR4 activation on enterocyte apoptosis; also recorded: reverses LPS induced apoptosis”.

What about the “mucosal healing / proliferation after TLR4 activation” value ([3]; intestinal mucosa, I3C, LPS) of the same molecule?
The value was “improved mucosal healing; also recorded: reverses LPS induced apoptosis and impaired proliferation”.

And the “TLR4-induced (LPS) cytokine induction in the intestinal mucosa” value ([3]; wild type mice, I3C 50 mg/kg, LPS 5 mg/kg)?
Its value is “reduced TLR4-induced (LPS 5 mg/kg) cytokine induction; also recorded: reduces TLR4 signaling; also recorded: reduces LPS-induced IL-6”.

And the Cypla1 expression ([3]; wild-type mice, I3C 50 mg/kg)?
The Cypla1 expression was “induced Cypla1 expression; also recorded: increases Cypla1”.
